“Also recorded” adds a separate entry of the source. *1 amine or outer side, *2 acyl side, *3 side chain or, on linkers, in order; H or OH if unused. Where a SMILES comes first, the peptide text is derived from it. Where no end group is shown, it is not given here. [ ]: non-standard residue; d: D form. ξ: configuration not given here. X1 = O=C(C1C[C@H](O)CN1[*:1])[*:2]; Hyp = O=C(O)[C@@H]1C[C@@H](O)CN1; ξY = NC(Cc1ccc(O)cc1)C(=O)O; ξP = O=C(O)C1CCCN1; ξA = CC(N)C(=O)O
Key:
[1] = cited from earlier work
[2] = test system: HeLa-Cx43 tumor overexpressing Cx43; assay: Optical tumor imaging of nude mice bearing tumor; format: in vivo, nude mouse; conditions: near-infrared fluorescent imaging, 1 h after tail vein injection
Description: (§1) HeLa-Cx43 cells overexpressing Cx43 were used to establish a subcutaneous xenograft model in nude mouse (FIG. 9, left), and the conventional subcutaneous xenograft model of HeLa cells without transfection of Cx43 were used as control group (FIG. 9, right). In vivo Cy5.5-Cx43SP1 near-infrared fluorescent imaging of tumor was carried out.

HeLa tumor = assay: Optical tumor imaging of nude mice bearing tumor, control xenograft; format: in vivo, nude mouse; conditions: near-infrared fluorescent imaging, 1 h after tail vein injection
Description: as §1

HeLa-Cx43 cells [3] = assay: Cy5.5-Cx43SP1 cells binding and blocking experiment; format: cell-based; conditions: for binding / uptake of probe by HeLa-Cx43 cells: Cy5.5-Cx43SP1 500 nmol/L, fluorescence microscopy
Source text: (§2) 1) Establishment of a Cx43 highly expressing cell line: Cervical cancer HeLa cells were transfected by Cx43 gene, and cervical cancer tumor cell lines HeLa-Cx43 overexpressing Cx43 was successfully prepared. Non-transgenic HeLa cells (without C43 expression) were used as control.
(§3) 2) Cy5.5-Cx43SP1 cells binding and blocking experiment: HeLa-Cx43 cells and the control group HeLa-Control cells were applied onto a 12-well plate in an amount of 0.5×10^6/well one day prior to experiment, and were classified into four groups: Group A: HeLa-Cx43 cells group, Group B: HeLa-Control cells group, Group C: HeLa-Cx43 cells blocking group, Group D: HeLa-Control cells blocking group. Each group comprises 3 wells and the experiment was repeated for 3 times. Into each well was added Cy5.5-Cx43SP1 with a concentration of 500 nmol/L and an amount of 1 ml. Unlabeled Cx43SP1 was added into blocking groups with a concentration of 5 μmol/L.

myocardial gap junctions = assay: Fluorescence microscopy of frozen tissue sections after tail vein injection of the probe; format: in vivo; conditions: 1 h after tail vein injection
Source text: Meanwhile, frozen sections of tissue were further prepared and imaged under a fluorescence microscope. By using muscle as a control (FIGS. 3-a, 3-b, and 3-c), the distribution profile of the probe Cy5.5-Cx43SP in heart was observed under a fluorescence microscope.

HeLa-Control cells [4] = assay: Cy5.5-Cx43SP1 cells binding and blocking experiment, control cells; format: cell-based; conditions: for binding / uptake of probe by control HeLa cells: Cy5.5-Cx43SP1 500 nmol/L, HeLa without Cx43 transfection
Source text: as §2, §3

[5] = Biological distribution of Cy5.5-Cx43SP in normal mice, ex vivo near-infrared fluorescent imaging of main organs; conditions: mouse
Description: 1 hour after injection of Cy5.5-Cx43SP, the mice were sacrificed, and their organs were taken out to perform ex vivo near-infrared fluorescent imaging of main organs. […] Especially, the relatively high uptake by heart is highly consistent with the fact that normal heart express relatively high Cx43 (FIG. 6).

HeLa-Control cells [6] = assay: ^64Cu-NODA-Cx43SP1 cells binding and blocking experiment, control cells; format: cell-based; conditions: 3.2 μCi/well, HeLa without Cx43 transfection
Source text: as §2
(§4) HeLa-Cx43 cells and control group HeLa-Control cells were applied onto a 12-well plate in an amount of 0.5×10^6/well one day prior to experiment, and were classified into four groups: Group A: HeLa-Cx43 cells group, Group B: HeLa-Control cells group, Group C: HeLa-Cx43 cells blocking group, Group D: HeLa-Control cells blocking group. Each group comprises 3 wells, and the experiment was repeated for 3 times. Into each well was added ^64Cu-NODA-Cx43SP1 with a concentration of 3.2 μCi/well and an amount of 1 ml. Unlabeled NODA-Cx43SP1 was added into the blocking groups with a concentration of 50 μg/well (10 times of ^64Cu-NODA-Cx43SP1).

HeLa-Cx43 cells [7] = assay: ^64Cu-NODA-Cx43SP1 cells binding and blocking experiment; format: cell-based
Source text: as §2, §4

Compound: CC(NC(=O)CN)C(=O)NCC(=O)N1C[C@@H](O)CC1C(=O)N1CCCC1C(=O)NC(Cc1ccc(O)cc1)C(N)=O (stereo partly drawn) [AAP10, Gly-Ala-Pro-Gly-4 Hyp-Pro-Tyr] (H-G[ξA]G[X1][ξP][ξY]-NH2)
- stability in plasma [1]: not stable in plasma

Compound: Cy5.5-Cx43SP1: Cx43SP1 labeled with near-infrared fluorescent dye Cy5.5 via Cy5.5-NHS (GAPG[Hyp]PY; also: Cy5.5 coupled via Cy5.5-NHS, site not given here)
- gathering of probe at HeLa-Cx43 tumor [2]: gathered in the location of HeLa-Cx43 tumor overexpressing Cx43 in high concentration; also recorded: gathered at tumor site of HeLa-Cx43 overexpressing Cx43 in large amount
- gathering of probe at control HeLa tumor (HeLa tumor): no obvious gather; also recorded: not concentrated at the HeLa tumor site
- binding / uptake of probe by HeLa-Cx43 cells (HeLa-Cx43 cells [3]): significant specific binding
- binding / uptake of probe by HeLa-Cx43 cells (HeLa-Cx43 cells [3]; listed as Cy5.5-Cx43SP): uptake a large amount
- binding / uptake by HeLa-Cx43 cells after blocking (HeLa-Cx43 cells [3]; blocking with excess unlabeled Cx43SP 5 μmol/L): substantially reduced; also recorded: decreases significantly
- gathering of probe in muscular tissue (control) (myocardial gap junctions; frozen section of muscle): not gathered in the muscular tissue
- gathering of probe in myocardial tissue (myocardial gap junctions; frozen section of myocardium): gathered in the myocardial tissue in large amount
- location of probe within myocardium (myocardial gap junctions; frozen section of myocardium): mainly distributed at the location of gap junctions between myocardial cells
- binding / uptake of probe by control HeLa cells (HeLa-Control cells [4]): no binding
- binding / uptake of probe by control HeLa cells (HeLa-Control cells [4]; listed as Cy5.5-Cx43SP): not uptaken
- uptake by control HeLa cells after blocking (HeLa-Control cells [4]; blocking with excess unlabeled Cx43SP): still do not uptake
- excretion route ([5]; 1 h after injection): mainly excreted through liver and intestinal tract, and partly through kidney and urinary system; also recorded: mostly excreted via liver and intestinal tract
- organ distribution of probe ([5]; 1 h after tail vein injection, ex vivo organs): mainly distributed in heart, liver, gastrointestinal tract; also recorded: significantly gathered in the heart, stomach, liver, gall bladder and intestinal tract

Compound: ^64Cu-NODA-Cx43SP1: NODA-modified Cx43SP1 labeled with ^64Cu, PET probe (GAPG[Hyp]PY; also: NODA chelator carrying 64Cu, site not given here)
- binding of probe to control HeLa cells (HeLa-Control cells [6]): no binding
- binding of probe to HeLa-Cx43 cells (HeLa-Cx43 cells [7]; 3.2 μCi/well): significant specific binding
- binding to HeLa-Cx43 in the blocking experiment (HeLa-Cx43 cells [7]; unlabeled NODA-Cx43SP1 50 μg/well): substantially reduced
